US20230085307A1, “PYRIDAZINONE COMPOUND AND HERBICIDE” (NISSAN CHEMICAL CORPORATION, priority 2019, published 2023)

How the values were obtained:
late watergrass = test: Test Example 1: herbicidal activity, application before weed generation under submerged conditions (Table 16, symbol A); type: in vivo, late watergrass (Echinochloa oryzicola); settings: amount of applied herbicide 320 g/ha
Outline: (§1)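 Emulsion formulation, water-diluted to set dose, was put onto the flooded surface (4 cm depth, alluvial soil) the same day weeds were sown and 2.5-leaf rice transplanted. After 3 weeks at 25-30 °C under glass, each species was rated 0 (≤5% kill) to 5 (≥90% kill).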

Japanese bulrush = test: Test Example 1: herbicidal activity, application before weed generation under submerged conditions (Table 16, symbol B); type: in vivo, Japanese bulrush (Schoenoplectus juncoides); settings: amount of applied herbicide 320 g/ha
Outline: as §1

oval-leafed pondweed = test: Test Example 1: herbicidal activity, application before weed generation under submerged conditions (Table 16, symbol C); type: in vivo, oval-leafed pondweed (Monochoria vaginalis); settings: amount of applied herbicide 320 g/ha
Outline: as §1

barnyard grass [1] = test: Test Example 3: herbicidal effect by foliage application, Wagner pot (Table 18, symbol H); type: in vivo, barnyard grass (Echinochloa crus-galli)
Outline: (§2)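 Plants were sown in alluvial soil held under 0.1–0.5 cm standing water and grown 14 days in a greenhouse at 25–30 °C. An emulsifiable formulation, water-diluted to the set dose, was then sprayed onto the foliage, and effects were scored three weeks later using previously defined criteria.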

Chinese sprangletop = test: Test Example 3: herbicidal effect by foliage application, Wagner pot (Table 18, symbol D); type: in vivo, chinese sprangletop (Leptochloa chinensis)
Outline: as §2

rice flat sedge = test: Test Example 3: herbicidal effect by foliage application, Wagner pot (Table 18, symbol E); type: in vivo, rice flat sedge (Cyperus iria)
Outline: as §2

southern crabgrass = test: Test Example 5: herbicidal effect by foliage application, plastic box (Table 20, symbol F); type: in vivo, southern crabgrass (Digitaria ciliaris); settings: 320 g/ha
Outline: (§3)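 Plants were sown into sterilized diluvial soil under about 1.5 cm cover and kept in a greenhouse at 25° C. to 30° C. Fourteen days on, foliage received an even spray of the diluted emulsion. Herbicidal or crop effect was judged three weeks afterwards.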

green foxtail = test: Test Example 5: herbicidal effect by foliage application, plastic box (Table 20, symbol G); type: in vivo, green foxtail (Setaria viridis); settings: 320 g/ha
Outline: as §3

barnyard grass [2] = test: Test Example 5: herbicidal effect by foliage application, plastic box (Table 20, symbol H); type: in vivo, barnyard grass (Echinochloa crus-galli); settings: 320 g/ha
Outline: as §3

wild oat = test: Test Example 5: herbicidal effect by foliage application, plastic box (Table 20, symbol I); type: in vivo, wild oat (Avena fatua); settings: 320 g/ha
Outline: as §3

blackgrass = test: Test Example 5: herbicidal effect by foliage application, plastic box (Table 20, symbol J); type: in vivo, blackgrass (Alopecurus myosuroides); settings: 320 g/ha
Outline: as §3

Italian ryegrass = test: Test Example 5: herbicidal effect by foliage application, plastic box (Table 20, symbol K); type: in vivo, Italian ryegrass (Lolium multiflorum); settings: 320 g/ha
Outline: as §3

windgrass = test: Test Example 5: herbicidal effect by foliage application, plastic box (Table 20, symbol L); type: in vivo, windgrass (Apera spica-venti); settings: 320 g/ha
Outline: as §3

velvetleaf = test: Test Example 5: herbicidal effect by foliage application, plastic box (Table 20, symbol M); type: in vivo, velvetleaf (Abutilon theophrasti); settings: 320 g/ha
Outline: as §3

redroot pigweed = test: Test Example 5: herbicidal effect by foliage application, plastic box (Table 20, symbol N); type: in vivo, redroot pigweed (Amaranthus retroflexus); settings: 320 g/ha
Outline: as §3

lambsquarters = test: Test Example 5: herbicidal effect by foliage application, plastic box (Table 20, symbol O); type: in vivo, lambsquarters (Chenopodium album); settings: 320 g/ha
Outline: as §3

chickweed = test: Test Example 5: herbicidal effect by foliage application, plastic box (Table 20, symbol P); type: in vivo, common chickweed (Stellaria media); settings: 320 g/ha
Outline: as §3

persian speedwell = test: Test Example 5: herbicidal effect by foliage application, plastic box (Table 20, symbol R); type: in vivo, Persian speedwell (Veronica persica); settings: 320 g/ha
Outline: as §3

[3] = amount of applied herbicide 320 g/ha
[4] = foliage application, three weeks after application
[5] = foliage application after 14-day growth, evaluated three weeks after application

CSCCOc1ccc(-c2sc3ccc(F)cc3c2-c2c(OCCSC)c(C)nn(C)c2=O)cc1 [2-420]
Herbicidal effect, A: late watergrass (late watergrass): 2 (Herbicidal rate of 20% or more and less than 40%)
Herbicidal effect, B: Japanese bulrush (Japanese bulrush): 3 (Herbicidal rate of 40% or more and less than 70%)
Herbicidal effect, C: oval-leafed pondweed (oval-leafed pondweed): 0 (Herbicidal rate of 5% or less (almost no effect))
herbicidal effect on H: barnyard grass (barnyard grass [1]; [3]): 5 (Herbicidal rate of 90% or more (almost completely withered))
herbicidal effect on D: Chinese sprangletop (Chinese sprangletop; [3]): 3 (Herbicidal rate of 40% or more and less than 70%)
herbicidal effect on E: rice flat sedge (rice flat sedge; [3]): 4 (Herbicidal rate of 70% or more and less than 90%)
F: southern crabgrass, herbicidal effect grade (southern crabgrass; [4]): 4 (Herbicidal rate of 70% or more and less than 90%)
G: green foxtail, herbicidal effect grade (green foxtail; [4]): 4 (Herbicidal rate of 70% or more and less than 90%)
H: barnyard grass, herbicidal effect grade (barnyard grass [2]; [4]): 5 (Herbicidal rate of 90% or more (almost completely withered))
I: wild oat, herbicidal effect grade (wild oat; [4]): 0 (Herbicidal rate of 5% or less (almost no effect))
J: blackgrass, herbicidal effect grade (blackgrass; [4]): 4 (Herbicidal rate of 70% or more and less than 90%)
K: Italian ryegrass, herbicidal effect grade (Italian ryegrass; [4]): 1 (Herbicidal rate of 5% or more and less than 20%)
L: windgrass, herbicidal effect grade (windgrass; [4]): 4 (Herbicidal rate of 70% or more and less than 90%)
M: velvetleaf, herbicidal effect grade (velvetleaf; [4]): 4 (Herbicidal rate of 70% or more and less than 90%)
N: redroot pigweed, herbicidal effect grade (redroot pigweed; [4]): 5 (Herbicidal rate of 90% or more (almost completely withered))
O: lambsquarters, herbicidal effect grade (lambsquarters; [4]): 5 (Herbicidal rate of 90% or more (almost completely withered))
P: chickweed, herbicidal effect grade (chickweed; [4]): 4 (Herbicidal rate of 70% or more and less than 90%)
R: persian speedwell, herbicidal effect grade (persian speedwell; [4]): 4 (Herbicidal rate of 70% or more and less than 90%)

COc1ccc2c(-c3c(OCC#N)c(C)nn(C)c3=O)c(-c3ccccc3OC)sc2c1 [3-153]
Herbicidal effect, A: late watergrass (late watergrass): 3 (Herbicidal rate of 40% or more and less than 70%)
Herbicidal effect, B: Japanese bulrush (Japanese bulrush): 3 (Herbicidal rate of 40% or more and less than 70%)
Herbicidal effect, C: oval-leafed pondweed (oval-leafed pondweed): 3 (Herbicidal rate of 40% or more and less than 70%)
herbicidal effect on barnyard grass (H) (barnyard grass [1]; 320 g/ha): 5 (Herbicidal rate of 90% or more (almost completely withered))
herbicidal effect on Chinese sprangletop (D) (Chinese sprangletop; 320 g/ha): 2 (Herbicidal rate of 20% or more and less than 40%)
herbicidal effect on rice flat sedge (E) (rice flat sedge; 320 g/ha): 0 (Herbicidal rate of 5% or less (almost no effect))
herbicidal effect on F: southern crabgrass (evaluation grade 0-5) (southern crabgrass; [5]): 3 (Herbicidal rate of 40% or more and less than 70%)
herbicidal effect on G: green foxtail (evaluation grade 0-5) (green foxtail; [5]): 5 (Herbicidal rate of 90% or more (almost completely withered))
herbicidal effect on H: barnyard grass (evaluation grade 0-5) (barnyard grass [2]; [5]): 5 (Herbicidal rate of 90% or more (almost completely withered))
herbicidal effect on I: wild oat (evaluation grade 0-5) (wild oat; [5]): 0 (Herbicidal rate of 5% or less (almost no effect))
herbicidal effect on J: blackgrass (evaluation grade 0-5) (blackgrass; [5]): 3 (Herbicidal rate of 40% or more and less than 70%)
herbicidal effect on K: Italian ryegrass (evaluation grade 0-5) (Italian ryegrass; [5]): 0 (Herbicidal rate of 5% or less (almost no effect))
herbicidal effect on L: windgrass (evaluation grade 0-5) (windgrass; [5]): 4 (Herbicidal rate of 70% or more and less than 90%)
herbicidal effect on M: velvetleaf (evaluation grade 0-5) (velvetleaf; [5]): 5 (Herbicidal rate of 90% or more (almost completely withered))
herbicidal effect on N: redroot pigweed (evaluation grade 0-5) (redroot pigweed; [5]): 4 (Herbicidal rate of 70% or more and less than 90%)
herbicidal effect on O: lambsquarters (evaluation grade 0-5) (lambsquarters; [5]): 4 (Herbicidal rate of 70% or more and less than 90%)
herbicidal effect on P: chickweed (evaluation grade 0-5) (chickweed; [5]): 5 (Herbicidal rate of 90% or more (almost completely withered))
herbicidal effect on R: persian speedwell (evaluation grade 0-5) (persian speedwell; [5]): 4 (Herbicidal rate of 70% or more and less than 90%)
